Here are results for one molecule from US10512667B2, “Compositions and methods for treating conditions related to adrenocortical activity and/or excessive steroid production” (The Regents of the University of Michigan, priority 2017, dated 2019).

“Also recorded” adds a separate entry of the source.

For assay [1], the system named is H295R cells. The experiment in a line: Cellular ATP level (CellTiter-Glo).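 As to all read-outs here: ATP quantified by luminescence after lysing the cells in CellTiter-Glo reagent, with compound exposure at 37 °C under 5% CO2.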 The note with it: for ATP level, compound alone: H295R cells, serum-containing medium. For orientation: Cellular ATP, detected with luciferase, serves as a proxy for viable cell number.
Protocol: The ATP levels of cells were measured by lysis in CellTiter-Glo reagent (Promega), and measurement of the luminescence.
After 48 h, 20-80 μl of medium was removed from each well and replaced with 20 μl of each compound diluted to 6× of the final concentration in the culture medium to produce a final volume of 120 μl. The cells were incubated at 37 C in 5% CO2 atmosphere for a time ranging from 15 min to 24 h. The medium was removed and immediately replaced with 50 μl of CellTiter-Glo luminescence cell viability assay reagent (Promega). The cells were lysed by agitation at room temperature for 20 min in the dark. The luminescence was measured using a SpectraMax M5 microplate reader (Molecular Devices) with a 0.5 s acquisition time. The luminescence (RLU) values for control cells ranged from 5000 to 20000 RLU in all experiments, and were scaled by a factor of 0.001 to plot all graphs.
For assay [2], the system named is H295R cells. The experiment in a line: Cholesterol crystallization and extracellular cholesterol associated with cells. The assay is classed as cell-based. As for the experimental part:
To quantify cholesterol crystallization, experiments were conducted that measured the total extracellular cholesterol that was associated with the cells. After culturing cells with the indicated compounds, the culture medium was removed. Medium lacking cholesterol was added to the cells, and the extracellular cholesterol that was released into the wash medium was collected after 30 seconds. To establish if the cholesterol that was released from the cells was exported by ABCA1, the wash step was performed in parallel using media with and without 50 μM glibenclamide, which inhibits ABCA1 activity. The total amount of cell-associated cholesterol that was released into the wash medium was measured using a fluorometric enzyme-linked assay (Cayman Chemical). Cholesterol esters were hydrolyzed using cholesterol esterase. Cholesterol was oxidized by cholesterol oxidase, producing hydrogen peroxide. The hydrogen peroxide was reacted with 10-acetyl-3,7-dihydroxyphenoxazine (ADHP) in the presence of horseradish peroxidase to produce resorufin. Resorufin fluorescence was measured using 555 nm exitation and 590 nm emission wavelengths in a SpectraMax M5 microplate reader (Molecular Devices).
The medium was removed and replaced with 50 μl serum-free medium supplemented with 5 μg/mL apo-AI (without or with 50 μM glyburide to detect ABCA1 transporter-dependent efflux) for either 30 sec or 1 h at 37 C in 5% CO2 atmosphere. After the indicated time, the supernatant, was transferred to a new 96-well plate and a fluorometric-base cholesterol detection assay cocktail was added.

Assay [3] relates to H295R cells. The experiment in a line: Visualization of cholesterol levels by filipin III binding. The note with it: for cholesterol level / accumulation (filipin III binding), compound alone: H295R cells, serum-containing medium. The assay is classed as cell-based. On the procedure:
The cells were seeded in 96-well ibiTreat μ-Plates and allowed to adhere for 48 h prior to the start of each experiment. Cholesterol was detected in fixed cells by incubating with 100 μg/ml filipin III at 37 C for 2 h. […] Images were captured using either a 4× or a 60× objective. Cholesterol esterification was visualized by culturing the cells with 1 μM NBD-cholesterol for 2 h following incubation with the indicated compounds. […] Images were captured using either a 20× or a 60× objective.
The medium was removed and immediately replaced with 100 μl of 4% paraformaldehyde and the cells were fixed at room temperature for 20 min. The cells were washed twice with 200 μl PBS. […] The fixed cells were incubated with filipin III at 37 C in the dark for 2 h.

Assay [4] relates to H295R cells. Kind of assay: Caspase 3/7 activity (Apo-ONE). The note with it: for caspase 3/7 activity, compound alone: H295R cells, serum-containing medium. The assay is classed as cell-based. On the procedure: The samples were incubated for 18 h at room temperature in the dark. The fluorescence was measured using a SpectraMax M5 microplate reader with a 0.5 s acquisition time.

The test system of assay [5] is H295R cells. Kind of assay: Visualization of NBD-cholesterol esterification. The format is cell-based. The note with it: 40 μM exogenous cholesterol, 100 μM ATR-101. As for the experimental part: The cells were seeded in 96-well ibiTreat μ-Plates and allowed to adhere for 48 h prior to the start of each experiment. Cholesterol was detected in fixed cells by incubating with 100 μg/ml filipin III at 37 C for 2 h. The bound filipin III was imaged by fluorescence microscopy using 377/11 nm excitation and 447/60 nm emission wavelengths. Images were captured using either a 4× or a 60× objective. Cholesterol esterification was visualized by culturing the cells with 1 μM NBD-cholesterol for 2 h following incubation with the indicated compounds. NBD-cholesterol esters were imaged by fluorescence microscopy using 485/20 nm excitation wavelengths. Images were captured using either a 20× or a 60× objective.
The cells were seeded in 96-well ibiTreat μ-Plates (Ibidi) in 100 μl at a density of 50,000 cells per well. […] 5 μl of NBD-cholesterol was added to each well to produce a final concentration of 1 μM. When NBD-cholesterol is esterified and localized to cytoplasmic lipid droplets, it produces bright fluorescent foci in the cell. The inhibition of ACAT activity prevents fluorescent focus formation by NBD-cholesterol (see, e.g., Lada, et al., 2004 J Lipid Res, 45, 378-86). After 1.5 h, 5 μl of Hoechst 33342 was added to each well to produce a final concentration of 3 μg/ml. After 30 min, the medium was replaced with fresh medium. NBD-cholesterol esterification was visualized by fluorescence microscopy using either 485/20 nm (NBD) or 387/11 nm (Hoechst) excitation wavelengths and images were captured using either a 60× oil objective or a 20× objective.

For assay [6], the system named is H295R cells. The experiment in a line: Cortisol secretion (indirect ELISA). The format is cell-based. To be noted: 40 μM of the compound together with ATR-101, 4 h. On the procedure: Cortisol secretion was measured by replacing the culture medium with fresh medium containing the indicated compounds. The medium was collected at the indicated times. The cortisol concentration in the medium was measured using indirect ELISA (Arbor Assays).
After 48 h, the medium was removed and replaced with 50 μl of fresh medium. After the indicated incubation time, aliquots of the supernatant ranging from 0.5 to 10 μl were diluted in 50 μl of medium were used to measure the amount of cortisol secreted. Cortisol detection and quantification were performed by indirect ELISA according to the manufacturer's protocol (Arbor Assays #K003).
For orientation: An ELISA detects its analyte on a solid surface through an enzyme-linked reagent.

Assay [7] has as its system H295R cells. The experiment in a line: Cell morphology by phase contrast microscopy. The assay is classed as cell-based. The note with it: 30 h. On the procedure: FIG. 4E: […] The cells were cultured with DMSO vehicle (upper images) or with 40 μM ATR-101 (lower images) alone (left images), or in combination with 1.5 mM MβCD (middle images), or in combination with 40 μM cholesterol (right images). Cell morphology was visualized by phase contrast microscopy using a 10× objective. The images are representative of 5 fields under each set of culture conditions. The scale bars denote 100 μm.

The mark [8] stands for this setting: H295R cells cultured with the compound together with ATR-101, 4 h.
Where [9] appears, read: H295R cells cultured with the compound together with ATR-101, 24 h.

Consider `CC(C)CCC[C@@H](C)[C@H]1CC[C@H]2[C@@H]3CC=C4C[C@@H](O)CC[C@]4(C)[C@H]3CC[C@]12C` [cholesterol], for which the “effect on ATP depletion by ATR-101” value is listed as “partially restored the ATP level; also recorded: restored normal or nearly normal ATP levels; also recorded: reduced ATP depletion” with H295R cells [1] (setting [8]) and “partially restored the ATP level; also recorded: inhibits ATP depletion by ATR-101” in the assay on H295R cells [1] (setting [9]). The “ATP level, compound alone” value with H295R cells [1] (4 h) and in the assay on H295R cells [1] (24 h) was “no detectable effect” in each case. In the assay on H295R cells [2] (4 h, 100 μM ATR-101 or 40 μM cholesterol), the “total extracellular cholesterol associated with cells” value is “increased the total extracellular cholesterol”. Further, in the assay on H295R cells [2] (compound in combination with ATR-101), the “effect on cholesterol crystallization in cells cultured with ATR-101” value was “produced more extracellular crystals; also recorded: increased the amount of extracellular cholesterol crystals”. In addition, the “effect on cholesterol accumulation caused by ATR-101” value with H295R cells [3] (H295R cells cultured with the compound together with ATR-101, 4 h or 24 h) is “lower cholesterol levels than cells that were cultured with ATR-101 alone; also recorded: prevented intracellular cholesterol accumulation; also recorded: did not have a higher level of filipin III binding to the plasma membrane”. Moreover, the “cholesterol level / accumulation (filipin III binding), compound alone” value in the assay on H295R cells [3] (24 h) and in the assay on H295R cells [3] (up to 4 h) was “no detectable effect” throughout. The “effect on caspase 3/7 activation by ATR-101” value with H295R cells [4] (setting [8]) is on record as “did not affect caspase 3/7 activation”; with H295R cells [4] (setting [9]), “reduced caspase activation”. In addition, the “caspase 3/7 activity, compound alone” value with H295R cells [4] (4 h) and in the assay with H295R cells [4] (24 h) was “no detectable effect” each time. In the assay with H295R cells [5], the “effect of exogenous cholesterol on NBD-cholesterol esterification and on its inhibition by ATR-101” value is on record as “no significant difference”. Besides, in the assay on H295R cells [6], the “effect on the inhibition of cortisol secretion by ATR-101” value is “neither compound prevented the inhibition of cortisol secretion”. Further, the “effect on the changes in cell morphology caused by ATR-101” value with H295R cells [7] (40 μM ATR-101 with 1.5 mM MβCD or 40 μM cholesterol) is “remained flat and adherent for at least 30 h; also recorded: prevented”. In addition, in the assay with H295R cells [7] (phase contrast), the “cell morphology, compound alone” value is on record as “no detectable effect”.
